pIC50: −log10 of the molar value.
Tested on: KRAS PDC multicell spheroid viability
Experiment: Anticancer human tumor 825966-067-R-J1-PDC patient-derived colon carcinoma cell line growth inhibition [KRAS2]
Conditions: for pIC50: curve of first compound; for viability, T/C: stronger effect = lower value
In short: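 Combination screen of spheroid viability in tumor-cell co-cultures with endothelial (HUVEC) and mesenchymal stem cell stroma. Each agent was tested in half-log dilutions, topping at clinical Cmax or at 10 microM without a known Cmax.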

[1] = second compound 0.1 µM, first compound 0.01 µM
[2] = second compound 0.1 µM, first compound 0.0316 µM
[3] = second compound 0.1 µM, first compound 0.1 µM
[4] = second compound 0.1 µM, first compound 0.316 µM
[5] = second compound 0.1 µM, first compound 1 µM
[6] = second compound 0.1 µM, first compound 3.16 µM
[7] = second compound 0.316 µM, first compound 0.01 µM
[8] = second compound 0.316 µM, first compound 0.0316 µM
[9] = second compound 0.316 µM, first compound 0.1 µM
[10] = second compound 0.316 µM, first compound 0.316 µM
[11] = second compound 0.316 µM, first compound 1 µM
[12] = second compound 0.316 µM, first compound 3.16 µM
[13] = second compound 1 µM, first compound 0.01 µM
[14] = second compound 1 µM, first compound 0.0316 µM
[15] = second compound 1 µM, first compound 0.1 µM
[16] = second compound 1 µM, first compound 0.316 µM
[17] = second compound 1 µM, first compound 1 µM
[18] = second compound 1 µM, first compound 3.16 µM
[19] = second compound 3.16 µM, first compound 0.01 µM
[20] = second compound 3.16 µM, first compound 0.0316 µM
[21] = second compound 3.16 µM, first compound 0.1 µM
[22] = second compound 3.16 µM, first compound 0.316 µM
[23] = second compound 3.16 µM, first compound 1 µM
[24] = second compound 3.16 µM, first compound 3.16 µM
[25] = second compound 10 µM, first compound 0.01 µM
[26] = second compound 10 µM, first compound 0.0316 µM
[27] = second compound 10 µM, first compound 0.1 µM
[28] = second compound 10 µM, first compound 0.316 µM
[29] = second compound 10 µM, first compound 1 µM
[30] = second compound 10 µM, first compound 3.16 µM
[31] = second compound 0.1 µM, first compound 10 µM
[32] = second compound 0.316 µM, first compound 10 µM
[33] = second compound 1 µM, first compound 10 µM
[34] = second compound 3.16 µM, first compound 10 µM
[35] = second compound 10 µM, first compound 10 µM
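Note: spheroids exposed to compounds for 7 days.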
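Throughout, for viability, T/C: 100% = DMSO vehicle control viability.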

SMILES | pIC50 (second compound 0.1 µM) | pIC50 (second compound 0.316 µM) | pIC50 (second compound 1 µM) | pIC50 (second compound 3.16 µM) | pIC50 (second compound 10 µM) | viability, T/C [2] | viability, T/C [3] | viability, T/C [4] | viability, T/C [5] | viability, T/C [8] | viability, T/C [9] | viability, T/C [10] | viability, T/C [11] | viability, T/C [14] | viability, T/C [15] | viability, T/C [16] | viability, T/C [17] | viability, T/C [20] | viability, T/C [21] | viability, T/C [22] | also measured
CC1COCCN1c1cc(-c2ccnn2C)c2ccnc(-c3ccn[nH]3)c2n1 (stereo not given) + CNCc1ccccc1-c1csc(C(C)Nc2nc(C)nc3cc(OC)c(OC)cc23)c1 | 6.61 | 6.56 | 6.91 | > 8.00 | > 8.00 | 129% | 89.2% | 34.4% | 44.4% | 131% | 75.8% | 54% | 49.5% | 91.5% | 56.8% | 18.3% | 14.2% | 8.68% | 1.56% | 2.53% | viability, T/C [1]: 111%; viability, T/C [6]: 37.3%; viability, T/C [7]: 132%; viability, T/C [12]: 30.3%; viability, T/C [13]: 104%; viability, T/C [18]: 2.54%; viability, T/C [19]: 29.4%; viability, T/C [23]: 0.56%; viability, T/C [24]: 0.39%; viability, T/C [25]: 0.18%; viability, T/C [26]: 0.15%; viability, T/C [27]: 0.12%; viability, T/C [28]: 0.52%; viability, T/C [29]: 0.12%; viability, T/C [30]: 0.19%
CC1OCC2(CCN(c3cnc(Sc4ccnc(N)c4Cl)c(N)n3)CC2)C1N (stereo not given) + CNCc1ccccc1-c1csc(C(C)Nc2nc(C)nc3cc(OC)c(OC)cc23)c1 | 5.12 | 5.16 | 5.17 | 5.94 | > 7.50 | 109% | 107% | 101% | 94.3% | 84.8% | 107% | 107% | 88% | 113% | 99.9% | 94.4% | 96.4% | 96.4% | 36.9% | 92.7% | viability, T/C [6]: 101%; viability, T/C [31]: 34.4%; viability, T/C [12]: 105%; viability, T/C [32]: 26.8%; viability, T/C [18]: 109%; viability, T/C [33]: 22.1%; viability, T/C [23]: 30%; viability, T/C [24]: 49.9%; viability, T/C [34]: 0.35%; viability, T/C [26]: 0.28%; viability, T/C [27]: 0.27%; viability, T/C [28]: 0.35%; viability, T/C [29]: 0.24%; viability, T/C [30]: 0.22%; viability, T/C [35]: 0.25%
CCN1CCN(Cc2ccc(Nc3ncc(F)c(-c4cc(F)c5nc(C)n(C(C)C)c5c4)n3)nc2)CC1 + CNCc1ccccc1-c1csc(C(C)Nc2nc(C)nc3cc(OC)c(OC)cc23)c1 | < 6.00 | < 6.00 | 6.15 | 7.17 | > 8.50 | 126% | 137% | 174% | 123% | 115% | 129% | 176% | 78% | 154% | 173% | 147% | 10.1% | 88.5% | 30.9% | 0.29% | viability, T/C (second compound 0.1 µM, first compound 0.00316 µM): 98.2%; viability, T/C [1]: 99.1%; viability, T/C (second compound 0.316 µM, first compound 0.00316 µM): 101%; viability, T/C [7]: 128%; viability, T/C (second compound 1 µM, first compound 0.00316 µM): 111%; viability, T/C [13]: 122%; viability, T/C (second compound 3.16 µM, first compound 0.00316 µM): 110%; viability, T/C [19]: 127%; viability, T/C [23]: 0.27%; viability, T/C (second compound 10 µM, first compound 0.00316 µM): 0.26%; viability, T/C [25]: 0.29%; viability, T/C [26]: 0.22%; viability, T/C [27]: 0.18%; viability, T/C [28]: 0.15%; viability, T/C [29]: 0.22%
CCNC(=O)CC1N=C(c2ccc(Cl)cc2)c2cc(OC)ccc2-n2c(C)nnc21 (stereo not given) + CNCc1ccccc1-c1csc(C(C)Nc2nc(C)nc3cc(OC)c(OC)cc23)c1 | < 5.00 | < 5.00 | < 5.00 | > 7.50 | > 7.50 | 90.3% | 113% | 118% | 91.4% | 112% | 113% | 120% | 90.9% | 117% | 113% | 122% | 111% | 27.8% | 0.64% | 0.53% | viability, T/C [6]: 82.2%; viability, T/C [31]: 65%; viability, T/C [12]: 83.1%; viability, T/C [32]: 71.5%; viability, T/C [18]: 96.6%; viability, T/C [33]: 51.1%; viability, T/C [23]: 0.19%; viability, T/C [24]: 2.33%; viability, T/C [34]: 0.59%; viability, T/C [26]: 0.15%; viability, T/C [27]: 0.15%; viability, T/C [28]: 0.17%; viability, T/C [29]: 0.16%; viability, T/C [30]: 0.14%; viability, T/C [35]: 0.37%
Cn1nccc1Nc1nccc(-c2cc3c(s2)C(C)(C)N(CCN2CCOCC2)C3=O)n1 + CNCc1ccccc1-c1csc(C(C)Nc2nc(C)nc3cc(OC)c(OC)cc23)c1 | < 5.00 | < 5.00 | 5.30 | 7.27 | > 7.50 | 108% | 96.9% | 123% | 125% | 94.8% | 103% | 137% | 75.6% | 118% | 137% | 134% | 98.1% | 78% | 13.4% | 12.4% | viability, T/C [6]: 96.1%; viability, T/C [31]: 82.3%; viability, T/C [12]: 82.2%; viability, T/C [32]: 75.8%; viability, T/C [18]: 66.8%; viability, T/C [33]: 29%; viability, T/C [23]: 0.56%; viability, T/C [24]: 0.23%; viability, T/C [34]: 0.47%; viability, T/C [26]: 0.39%; viability, T/C [27]: 0.21%; viability, T/C [28]: 0.16%; viability, T/C [29]: 0.16%; viability, T/C [30]: 2.28%; viability, T/C [35]: 0.24%
CC(=O)OC12COC1CC(O)C1(C)C(=O)C(O)C3=C(C)C(OC(=O)C(O)C(NC(=O)OC(C)(C)C)c4ccccc4)CC(O)(C(OC(=O)c4ccccc4)C21)C3(C)C (stereo not given) + COc1cc2nc(C)nc(NC(C)c3cc(N)cc(C(F)(F)F)c3)c2cc1OC1CCOC1 | > 8.00 | > 8.00 | > 8.00 | > 8.00 | > 8.00 | 24.6% | 35.8% | 17.3% | 26.8% | 29.3% | 23.1% | 38.4% | 24% | 29.3% | 27.6% | 18.7% | 24.7% | 13.4% | 29.2% | 16.4% | viability, T/C [1]: 18.9%; viability, T/C [6]: 34.5%; viability, T/C [7]: 23.8%; viability, T/C [12]: 44%; viability, T/C [13]: 16.9%; viability, T/C [18]: 29.6%; viability, T/C [19]: 16.6%; viability, T/C [23]: 21.3%; viability, T/C [24]: 25.1%; viability, T/C [25]: 11.7%; viability, T/C [26]: 15%; viability, T/C [27]: 19.3%; viability, T/C [28]: 14.2%; viability, T/C [29]: 20.9%; viability, T/C [30]: 12.4%

— PubChem BioAssay AID1963865 (Molecular Pharmacology Branch, DTP, NCI, 2024)
